Measurements published in PMC10257196 (Journal of Pharmaceutical Analysis, 2023).

Biological target: alkyladenine DNA glycosylase (AAG) (Homo sapiens, UniProt P29372)
Test: TRES coupled AAG/APE1 activity assay at […]
Format: biochemical
Details: read-out: % inhibition at 10 μM

Chain of alkyladenine DNA glycosylase (AAG) (P29372 18-298): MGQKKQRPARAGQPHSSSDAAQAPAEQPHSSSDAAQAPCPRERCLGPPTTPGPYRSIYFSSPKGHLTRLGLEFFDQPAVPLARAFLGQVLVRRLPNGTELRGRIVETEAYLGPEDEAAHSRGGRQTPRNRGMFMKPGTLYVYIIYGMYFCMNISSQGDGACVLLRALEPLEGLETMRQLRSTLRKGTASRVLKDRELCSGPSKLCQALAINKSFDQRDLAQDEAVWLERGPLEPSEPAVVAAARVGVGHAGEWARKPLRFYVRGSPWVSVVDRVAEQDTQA

An inhibition at 10 µM of 77.5% was found for `O=c1c(O)c(-c2ccc(O)cc2O)oc2cc(O)cc(O)c12` [morin] in this work.
